Patent US20250215039A1, “NUCLEOSIDES FOR TREATING CANCER” (PRIMEFOUR THERAPEUTICS, INC., priority 2022, published 2025)
Like-named read-outs stand apart in the source and are kept apart here.

System: cancer cell lines
Test: Cancer cell proliferation activity (CellTiterGlo, 72 h)
Assay type: cell-based
Conditions: 72 h, 72 h, read-out: IC50 cell proliferation
Description: Dose response relationships on cell proliferation was assessed for representative Compounds of the Disclosure on cancer cell lines. Briefly, compound treatment of cells started one day after seeding with a final DMSO concentration of 0.1%, and was performed by nanodrop-dispensing using a Tecan Dispenser. 0.1% DMSO (solvent) and Staurosporine (10 μM) served as high control (100% viability) and low control (0% viability), respectively.
Cells were cultured in the appropriate media. For the assays, cells were seeded in white cell culture-treated flat and clear bottom multiwell plates and incubated at 37° C. overnight before compound was added. After incubation for 72 h at 37° C. at 5% or 10% CO2 dependent on the medium, cell plates were equilibrated to room temperature for one hour, CellTiterGlo reagent (Promega) was added and luminescence was measured approximately an hour later using a luminometer.
Raw data were converted into percent cell viability relative to the high and low control, which were set to 100% and 0%, respectively.
The IC50 values are summarized in Tables 9A-1, Table 10A, and Table 10B.

## Nc1nc(F)nc2c1ncn2[C@@H]1O[C@H](CO)[C@@H](O)[C@@H]1O [compound 170, (2R,3S,4S,5R)-2-(6-amino-2-fluoro-9H-purin-9-yl)-5-(hydroxymethyl)tetrahydrofuran-3,4-diol]
5637 (bladder)
  IC50: 2.4 µM
CLS439 (bladder)
  IC50: 45.5 µM
HS729 (muscle)
  IC50: 3.52 µM
J82 (bladder)
  IC50: 19.4 µM
JAR (placenta)
  IC50: 45.9 µM
MT3 (breast)
  IC50: 2 µM
PANCI (pancreas)
  IC50: 16.6 µM
PC3 (prostate)
  IC50: 2.54 µM
RD (muscle)
  IC50: 11.9 µM
T24 (bladder)
  IC50: 5.89 µM
Homo sapiens, 22Rv1, 72 h, 22RV1 (prostate)
  IC50: 79.5 µM
Homo sapiens, 786-0, 72 h, 786O (kidney)
  IC50: 29.6 µM
Homo sapiens, A204, 72 h, A204 (muscle)
  IC50: 0.53 µM
Homo sapiens, A549, 72 h, A549 (lung)
  IC50: 8.86 µM
Homo sapiens, A673, 72 h, A673 (bone)
  IC50: 10.8 µM
Homo sapiens, A2780, 72 h, A2780 (ovary)
  IC50: 7.16 µM
Homo sapiens, A-375, 72 h, A375 (skin)
  IC50: 9.75 µM
Homo sapiens, A-431, 72 h, A431 (skin)
  IC50: 11.1 µM
Homo sapiens, ACHN, ACHN (kidney)
  IC50: 12.7 µM
Homo sapiens, ASPC1, 72 h, ASPC1 (pancreas)
  IC50: 7.85 µM
Homo sapiens, BT-20, 72 h, BT20 (breast)
  IC50: 38.2 µM
Homo sapiens, BXPC-3, 72 h, BXPC3 (pancreas)
  IC50: 6.87 µM
Homo sapiens, C-33-A, C33A (endometrial)
  IC50: 9.56 µM
Homo sapiens, CAKI-1, 72 h, CAKI1 (kidney)
  IC50: 2.46 µM
Homo sapiens, COLO 205, 72 h, COLO205 (colon)
  IC50: 2.8 µM
Homo sapiens, COLO-678, 72 h, COLO678 (colon)
  IC50: 21.8 µM
Homo sapiens, Ca-Ski, CASKI (endometrial)
  IC50: 107 µM
Homo sapiens, Caco-2, 72 h, CACO2 (colon)
  IC50: 49.2 µM
Homo sapiens, Calu-6, 72 h, CALU6 (lung)
  IC50: 17.3 µM
Homo sapiens, DLD-1, 72 h, DLD1 (colon)
  IC50: 11.4 µM
Homo sapiens, DU-145, 72 h, DU145 (prostate)
  IC50: 5.44 µM
Homo sapiens, EFO-21, 72 h, EFO21 (ovary)
  IC50: 7.34 µM
Homo sapiens, EJ-28, 72 h, EJ28 (bladder)
  IC50: 10.4 µM
Homo sapiens, Granta-519, 72 h, GRANTA-519 (hematological)
  IC50: 1.66 µM
Homo sapiens, HCT-15, 72 h, HCT15 (colon)
  IC50: 12.4 µM
Homo sapiens, HCT-116, 72 h, HCT116 (colon)
  IC50: 5.26 µM
Homo sapiens, HEK293, 72 h, HEK293 (kidney)
  IC50: 35.2 µM
Homo sapiens, HL-60, 72 h, HL-60 (hematological)
  IC50: 2.05 µM
Homo sapiens, HT-29, 72 h, HT29 (colon)
  IC50: 18.4 µM
Homo sapiens, HT-1080, 72 h, HT1080 (connective tissue)
  IC50: 4.09 µM
Homo sapiens, HeLa, HELA (endometrial)
  IC50: 6.72 µM
Homo sapiens, HepG2, 72 h, HEPG2 (liver)
  IC50: 15.3 µM
Homo sapiens, Hs-578T, HS578T (breast)
  IC50: 36.6 µM
Homo sapiens, IGROV-1, 72 h, IGROV1 (ovary)
  IC50: 13.6 µM
Homo sapiens, IMR-90, 72 h, IMR90 (lung)
  IC50: 11.8 µM
Homo sapiens, JEG-3, 72 h, JEG3 (placenta)
  IC50: 56.8 µM
Homo sapiens, JIMT-1, 72 h, JIMT1 (breast)
  IC50: 1.66 µM
Homo sapiens, K562, 72 h, K-562 (hematological)
  IC50: 41.8 µM
Homo sapiens, Kasumi 1, 72 h, KASUMI-1 (hematological)
  IC50: 0.55 µM
Homo sapiens, L-363, 72 h, L-363 (hematological)
  IC50: 33 µM
Homo sapiens, LoVo, LOVO (colon)
  IC50: 9.73 µM
Homo sapiens, MCF7, 72 h, MCF7 (breast)
  IC50: 27.2 µM
Homo sapiens, MDA-MB-231, 72 h, MDAMB231 (breast)
  IC50: 2.88 µM
Homo sapiens, MDA-MB-435, 72 h, MDAMB435 (skin)
  IC50: 14.2 µM
Homo sapiens, MDA-MB-436, 72 h, MDAMB436 (breast)
  IC50: 3.35 µM
Homo sapiens, MDA-MB-468, 72 h, MDAMB468 (breast)
  IC50: 23.6 µM
Homo sapiens, MG-63, 72 h, MG63 (bone)
  IC50: 15.5 µM
Homo sapiens, MHH-ES-1, 72 h, MHHES1 (bone)
  IC50: 5.05 µM
Homo sapiens, MIA PaCa-2, 72 h, MIAPACA2 (pancreas)
  IC50: 35.4 µM
Homo sapiens, MINO, MINO (hematological)
  IC50: 0.61 µM
Homo sapiens, MV4-11, 72 h, MV4-11 (hematological)
  IC50: 5.77 µM
Homo sapiens, NCI-H23, 72 h, NCI-H23 (lung)
  IC50: 8.19 µM
Homo sapiens, NCI-H82, 72 h, NCIH82 (lung)
  IC50: 21.3 µM
Homo sapiens, NCI-H292, 72 h, NCIH292 (lung)
  IC50: 8.01 µM
Homo sapiens, NCI-H460, 72 h, NCIH460 (lung)
  IC50: 32.5 µM
Homo sapiens, OVCAR-3, 72 h, OVCAR3 (ovary)
  IC50: 1.13 µM
Homo sapiens, OVCAR-4, 72 h, OVCAR4 (ovary)
  IC50: 16.3 µM
Homo sapiens, PLC-PRF-5, 72 h, PLCPRF5 (liver)
  IC50: 20.1 µM
Homo sapiens, Panc1005, 72 h, PANC1005 (pancreas)
  IC50: 5.7 µM
Homo sapiens, Ramos, RAMOS (hematological)
  IC50: 5.1 µM
Homo sapiens, SAOS-2, 72 h, SAOS2 (bone)
  IC50: 0.45 µM
Homo sapiens, SF-268, 72 h, SF268 (brain)
  IC50: 16.3 µM
Homo sapiens, SF-295, 72 h, SF295 (brain)
  IC50: 86.5 µM
Homo sapiens, SK-BR-3, 72 h, SKBR3 (breast)
  IC50: 1.58 µM
Homo sapiens, SK-HEP1, 72 h, SKHEP1 (liver)
  IC50: 5.36 µM
Homo sapiens, SK-LMS-1, 72 h, SKLMS1 (uterus)
  IC50: 44.3 µM
Homo sapiens, SK-MEL-5, 72 h, SKMEL5 (skin; SKMELS [sic] in Table 9E)
  IC50: 15.9 µM
Homo sapiens, SK-MEL-28, 72 h, SKMEL28 (skin)
  IC50: 11.1 µM
Homo sapiens, SK-N-AS, SKNAS (brain)
  IC50: 29.5 µM
Homo sapiens, SK-N-SH, SKNSH (brain)
  IC50: 22.2 µM
Homo sapiens, SK-OV-3, 72 h, SKOV3 (ovary)
  IC50: 4.22 µM
Homo sapiens, SNB-75, 72 h, SNB75 (brain)
  IC50: 50.6 µM
Homo sapiens, SU-DHL10, 72 h, SU-DHL-10 (hematological)
  IC50: 5.61 µM
Homo sapiens, SU-DHL-6, 72 h, SU-DHL-6 (hematological)
  IC50: 38.6 µM
Homo sapiens, SW-620, 72 h, SW620 (colon)
  IC50: 17.4 µM
Homo sapiens, TE-671, 72 h, TE671 (muscle)
  IC50: 11.1 µM
Homo sapiens, THP-1, 72 h, THP-1 (hematological)
  IC50: 5.86 µM
Homo sapiens, U2OS, U20S (bone; U2OS in Table 9E)
  IC50: 13.8 µM
Homo sapiens, U-87 MG, U87MG (brain)
  IC50: 5.59 µM
Homo sapiens, UMUC3, 72 h, UMUC3 (bladder)
  IC50: 21.6 µM
Homo sapiens, UO-31, 72 h, UO31 (kidney)
  IC50: 7.43 µM
Homo sapiens, WSU-NHL, WSU-NHL (hematological)
  IC50: 1.91 µM
NCI-H358M, NCIH358M (lung)
  IC50: 0.29 µM
PBMC, PBMC (hematological)
  IC50: 0.29 µM
RD-ES, RDES (bone)
  IC50: 35.3 µM
